# Source: patent publication US20230027985A1, “SUBSTITUTED HYDANTOINAMIDES AS ADAMTS7 ANTAGONISTS” (Bayer Aktiengesellschaft, priority 2019, published 2023)
# How the values were obtained:
# [1] = molecular target: T1, Purified recombinant ADAMTS-7 (rat prodomain/human catalytic domain, SEQ ID No. 01 or 02) (Homo sapiens, UniProt Q9UKP4); experiment: Assay for ADAMTS-7 enzymatic activity (FRET substrate cleavage); assay type: biochemical; conditions: FRET substrate SEQ ID No. 11, 120 min at 32° C.; read-out: ADAMTS7-IC50
# T1 construct: rat ADAMTS-7 signal peptide + prodomain (rat 1-217, Q1EHB3) (N); 2xStrep tag (C); 6xHis tag (C); made in house; host or cells: Expi293 cells
# T1 sequence (Q9UKP4 237-537): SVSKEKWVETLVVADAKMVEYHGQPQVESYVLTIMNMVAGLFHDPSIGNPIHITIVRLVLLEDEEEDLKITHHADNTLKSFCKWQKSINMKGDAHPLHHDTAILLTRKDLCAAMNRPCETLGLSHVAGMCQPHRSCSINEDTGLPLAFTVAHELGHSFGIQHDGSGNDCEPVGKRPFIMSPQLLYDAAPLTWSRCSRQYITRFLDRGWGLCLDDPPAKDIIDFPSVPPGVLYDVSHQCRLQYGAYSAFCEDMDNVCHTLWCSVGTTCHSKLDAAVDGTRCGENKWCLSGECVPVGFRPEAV
# Experimental: Purified recombinant ADAMTS-7 (as of SEQ ID No. 01 or SEQ ID No. 02) was diluted in reaction buffer (20 mM HEPES pH 8.0, 150 mM NaCl, 5 mM CaCl2, 0.004% Brij, 10 μM ZnCl2) fora concentration of approximately 20 nM. 25 μl of the solution were transferred into each well of a 384-well white microtiter plate (Greiner Bio-One 781075) and 1 μl test compound solution (modulator/inhibitor dissolved in DMSO, at the corresponding concentration) or pure DMSO as a control were added per well. […] Amino acids […] are derived from Thrombospondin-1 sequence (275-289). An additional carboxyl glutamic acid was added after the QXL520 quencher to increase substrate solubility. The microtiter plate was incubated for 120 min at the temperature of 32° C. The increase of fluorescence intensity was measured in appropriate fluorescence plate reader (e.g. TECAN Ultra) using excitation wavelength of 485 nm and emission wavelength of 520 nm. IC50 values were calculated from percentage of inhibition of ADAMTS-7 activity as a function of test compound concentration.
# ADAMTS4 = molecular target: T2, ADAMTS4 (Homo sapiens, UniProt O75173); experiment: Selectivity assay for ADAMTS-7 modulators (FRET), ADAMTS4; assay type: biochemical; conditions: 50 nM enzyme (R&D 4307-AD), 1 μM Dabcyl/Edans FRET substrate, 120 min at 32° C.
# T2 construct: purchased R&D 4307-AD
# T2 sequence (O75173 213-685 limits assumed): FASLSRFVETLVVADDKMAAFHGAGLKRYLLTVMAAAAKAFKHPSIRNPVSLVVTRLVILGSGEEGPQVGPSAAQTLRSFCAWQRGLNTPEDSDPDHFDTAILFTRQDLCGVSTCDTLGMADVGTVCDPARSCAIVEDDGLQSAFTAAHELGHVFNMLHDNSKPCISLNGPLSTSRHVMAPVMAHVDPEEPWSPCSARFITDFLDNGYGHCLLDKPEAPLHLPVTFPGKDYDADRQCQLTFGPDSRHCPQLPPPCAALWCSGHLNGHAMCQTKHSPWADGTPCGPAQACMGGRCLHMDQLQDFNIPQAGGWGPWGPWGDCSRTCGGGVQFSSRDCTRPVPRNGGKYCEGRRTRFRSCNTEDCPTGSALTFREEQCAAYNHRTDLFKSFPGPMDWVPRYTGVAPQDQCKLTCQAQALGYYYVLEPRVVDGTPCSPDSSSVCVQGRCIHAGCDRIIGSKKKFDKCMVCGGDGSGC
# Experimental: The respective enzyme (see table 2 below) was diluted in reaction buffer (50 mM Tris, 2.5 μM ZnCl2, 0.05% BSA, 0.001% Brij, pH 7.5 for ADAM17; 50 mM Tris 7.5, 150 mM NaCl, 10 mM CaCl2, 0.05% Brij for all other enzymes) to the respective concentration and 25 μl were transferred into each well of a 384-well white microtiter plate (Greiner Bio One 781075). 1 μl test compound solution (dissolved in DMSO, at the corresponding concentration) or pure DMSO as a control was added per well. The enzymatic reaction was initiated by addition of 25 μl of the respective concentration of the respective FRET substrate (see table 2 below) in reaction buffer. The microtiter plate was incubated for 120 min at the temperature of 32° C. The increase of fluorescence intensity was measured in appropriate fluorescence plate reader (e.g. TECAN Ultra) using the respective wavelengths for excitation and emission. IC50 values were calculated from percentage of inhibition of enzyme activity as a function of test compound concentration.
IC50 [1] [nM],IC50 (ADAMTS4) [nM],Structure (SMILES)
210,,"CC(C)(C)C1(CNC(=O)c2cnn(-c3ccc(C(F)(F)F)c(F)c3)n2)NC(=O)NC1=O (racemic) [Example 2, rac-N-{[4-tert-butyl-2,5-dioxoimidazolidin-4-yl]methyl}-2-[3-fluoro-4-(trifluoromethyl)phenyl]-2H-1,2,3-triazole-4-carboxamide]"
260,6600,"CC(C)(C)C1(CNC(=O)c2cnn(-c3cccc(F)c3)n2)NC(=O)NC1=O (racemic) [Example 4, rac-N-{[4-tert-butyl-2,5-dioxoimidazolidin-4-yl]methyl}-2-(3-fluorophenyl)-2H-1,2,3-triazole-4-carboxamide]"
620,,"CC(C)(C)C1(CNC(=O)c2cnn(-c3ccc(C(F)(F)F)cc3)n2)NC(=O)NC1=O (racemic) [Example 6, rac-N-[(4-tert-butyl-2,5-dioxoimidazolidin-4-yl)methyl]-2-[4-(trifluoromethyl)phenyl]-2H-1,2,3-triazole-4-carboxamide]"
62,8500,"O=C1NC(=O)C(CNC(=O)c2cnn(-c3ccccc3)n2)(C2CCCOC2)N1 (racemic) [Example 7, rac-N-{[2,5-dioxo-4-(tetrahydro-2H-pyran-3-yl)imidazolidin-4-yl]methyl}-2-phenyl-2H-1,2,3-triazole-4-carboxamide]"
170,22000,"O=C1NC(=O)C(CNC(=O)c2cnn(-c3ccccc3)n2)(C2CCOC2)N1 (racemic) [Example 19, rac-N-{[2,5-dioxo-4-(tetrahydrofuran-3-yl)imidazolidin-4-yl]methyl}-2-phenyl-2H-1,2,3-triazole-4-carboxamide]"
26,4800,"O=C1NC(=O)C(CNC(=O)c2cnn(-c3ccccc3)n2)(c2ccccn2)N1 (racemic) [Example 20, rac-N-{[2,5-dioxo-4-(pyridin-2-yl)imidazolidin-4-yl]methyl}-2-phenyl-2H-1,2,3-triazole-4-carboxamide]"
200,2800,"O=C1NC(=O)C(CNC(=O)c2cnn(-c3ccccc3)n2)(c2ccncc2)N1 (racemic) [Example 21, rac-N-{[2,5-dioxo-4-(pyridin-4-yl)imidazolidin-4-yl]methyl}-2-phenyl-2H-1,2,3-triazole-4-carboxamide]"
10,3000,"O=C1NC(=O)C(CNC(=O)c2cnn(-c3ccc(F)cc3)n2)(c2ccccn2)N1 (racemic) [Example 22, rac-N-{[2,5-dioxo-4-(pyridin-2-yl)imidazolidin-4-yl]methyl}-2-(4-fluorophenyl)-2H-1,2,3-triazole-4-carboxamide]"
30,4500,"O=C1NC(=O)C(CNC(=O)c2cnn(-c3ccc(F)cc3)n2)(c2cccnc2)N1 (racemic) [Example 23, rac-N-{[2,5-dioxo-4-(pyridin-3-yl)imidazolidin-4-yl]methyl}-2-(4-fluorophenyl)-2H-1,2,3-triazole-4-carboxamide]"
140,2900,"O=C1NC(=O)C(CNC(=O)c2cnn(-c3ccc(F)cc3)n2)(c2ccncc2)N1 (racemic) [Example 24, rac-N-{[2,5-dioxo-4-(pyridin-4-yl)imidazolidin-4-yl]methyl}-2-(4-fluorophenyl)-2H-1,2,3-triazole-4-carboxamide]"
265,14500,"CC(C)C1(CNC(=O)c2cnn(-c3ccccc3)n2)NC(=O)NC1=O (racemic) [Example 48, rac-N-[(2,5-dioxo-4-(propan-2-yl)imidazolidin-4-yl)methyl]-2-phenyl-2H-1,2,3-triazole-4-carboxamide]"
70,15000,"CC(C)(C)C1(CNC(=O)c2cnn(-c3ccccc3)n2)NC(=O)NC1=O (racemic) [Example 49, rac-[(4-tert-butyl-2,5-dioxoimidazolidin-4-yl)methyl]-2-phenyl-2H-1,2,3-triazole-4-carboxamide]"
191,,"O=C1NC(=O)C(CNC(=O)c2cnn(-c3ccccc3)n2)(C2CCCC2)N1 (racemic) [Example 50, rac-N-[(4-cyclopentyl-2,5-dioxoimidazolidin-4-yl)methyl]-2-phenyl-2H-1,2,3-triazole-4-carboxamide]"
89,15000,"CCCCC1(CNC(=O)c2cnn(-c3ccccc3)n2)NC(=O)NC1=O (racemic) [Example 51, rac-N-[(4-butyl-2,5-dioxoimidazolidin-4-yl)methyl]-2-phenyl-2H-1,2,3-triazole-4-carboxamide]"
55,14000,"O=C1NC(=O)C(CNC(=O)c2cnn(-c3ccccc3)n2)(C2CCC2)N1 (racemic) [Example 52, rac-N-[4-cyclobutyl-2,5-dioxoimidazolidin-4-yl)methyl]-2-phenyl-2H-1,2,3-triazole-4-carboxamide]"
145,,"O=C1NC(=O)C(CNC(=O)c2cnn(-c3ccccc3)n2)(C2CCCCC2)N1 (racemic) [Example 53, rac-N-[(4-cyclohexyl-2,5-dioxoimidazolidin-4-yl)methyl]-2-phenyl-2H-1,2,3-triazole-4-carboxamide]"
240,,"O=C1NC(=O)C(CNC(=O)c2cnn(-c3ccc(F)cc3)n2)(CC2CC2)N1 (racemic) [Example 64, rac-N-[4-(cyclopropylmethyl)-2,5-dioxoimidazolidin-4-yl)methyl]-2-(4-fluorophenyl)-2H-1,2,3-triazole-4-carboxamide]"
380,,"O=C1NC(=O)C(CNC(=O)c2cnn(-c3ccc(F)cc3)n2)(C2CCCC2)N1 (racemic) [Example 66, rac-N-[(4-cyclopentyl-2,5-dioxoimidazolidin-4-yl]methyl]-2-(4-fluorophenyl)-2H-1,2,3-triazole-4-carboxamide]"
,460,"O=C1NC(=O)C(CNC(=O)c2cnn(-c3ccc(F)cc3)n2)(c2ncsc2C2CC2)N1 (racemic) [Example 157, rac-N-{[4-(5-cyclopropyl-1,3-thiazol-4-yl)-2,5-dioxoimidazolidin-4-yl]methyl}-2-(4-fluorophenyl)-2H-1,2,3-triazole-4-carboxamide]"
590,,"O=C1NC(=O)C(CNC(=O)c2cnn(-c3ccc(F)cc3)n2)(c2ccccn2)N1 (single isomer, unassigned) [Example 138, ent-N-{[2,5-dioxo-4-(pyridin-2-yl)imidazolidin-4-yl]methyl}-2-(4-fluorophenyl)-2H-1,2,3-triazole-4-carboxamide]"
,975,"O=C1NC(=O)C(CNC(=O)c2cnn(-c3ccc(Cl)c(F)c3)n2)(C2CCC2)N1 (single isomer, unassigned; ent-2) [Example 89, ent-2-(4-chloro-3-fluorophenyl)-N-[(4-cyclobutyl-2,5-dioxoimidazolidin-4-yl)methyl]-2H-1,2,3-triazole-4-carboxamide]"
710,,"C[C@@H](NC(=O)c1cnn(-c2ccccc2)n1)C1(C2CC2)NC(=O)NC1=O (stereo partly drawn) [Example 39, ent-N-((1R)-1-(4-Cyclopropyl-2,5-dioxoimidazolidin-4-yl)ethyl)-2-phenyl-2H-1,2,3-triazole-4-carboxamide]"
